Data on five compounds can be found in US4798896A, “Antipsychotic gamma-carboline N-oxides” (American Home Products Corporation, priority 1988, dated 1989).

The target in data set [1] is T1, serotonin-2 receptors (5HT2) (Rattus norvegicus, UniProt P14842).
T1 construct: employing brain cortical tissue; from tissue; host or cells: brain cortical tissue
The data set is described as follows: serotonin-2 (5HT2) receptor binding in brain cortical tissue. The following applies: for inhibition at 1 µM: read-out: % Inhibition of serotonin 5HT2 binding, at 1 μM.

For data set [2], the target named is T2, dopamine receptors (limbic D2) (Rattus norvegicus, UniProt P61169).
T2 construct: from tissue
Kind of data set: limbic (accumbens) D2 binding, 3H-spiroperidol. The following applies: limbic brain tissue. As to the method: (§1) Following the procedures of Fields et al., Brain Res., 136, 578 (1977) and Yamamura et al., Neurotransmitter Receptor Binding, Raven Press, N.Y. (1978), homogenized limbic brain tissue is incubated with ^3 H-spiroperidol and various concentrations of test compound, filtered and washed and shaken with Hydrofluor scintillation cocktail (National Diagnostics) and counted in a Packard 460 CD scintillation counter. Binding in the presence of test compound is expressed as percent of specific binding [total binding less binding in the presence of 1 μM (+) butaclamol]. This limbic D2 binding procedure assesses a compounds potential binding at dopamine receptors as a predictor of antipsychotic activity.

Data set [3] relates to trained male CD rats (Charles River). The data set is described as follows: conditioned avoidance, shelf-jump response test in trained rats. It counts as in vivo, rat. The text has this:
The antipsychotic/anxiolytic properties of the pyridine N-oxides of this invention were established by standard pharmacologically accepted procedures involving conditioned avoidance studies in which trained male CD rats (Charles River), 400-500 gm body weight, are exposed to a fifteen second warning tone (conditional stimulus) continued for an additional fifteen seconds accompanied by electric shock. The rates can avoid the electric shock by jumping to an exposed shelft (shelf-jump response). A response during the initial warning tone is considered to be an avoidance response while a response during shock delivery is considered an escape response. The avoidance response is determined and expressed as a percentage of total trials from an appropriate number of trials. The shelf-jump response test procedure follows that of Herman et al., Comm. in Psychopharm., 3, 165 (1979).

Data set [4] in a line: isolation of metabolites from rat urine after oral administration of the parent drug. It counts as in vivo. The following applies: oral administration of parent drug at 100 mg/kg. The text has this: (§2) By comparative analysis, the compounds of this invention were discovered to be one major form of several metabolites of the compounds disclosed in U.S. Pat. Nos. 4,636,563 and 4,672,117. This may be illustrated by consideration of the metabolic conversion of the compound of claim 13 of U.S. Pat. No. 4,636,563. Oral administration of the drug 8-fluoro-2,3,4,5-tetrahydro-2-[3-(3-pyridinyl)propyl]-1H-pyrido[4,3-b]indole to rats at a dose of 100 milligrams per kg followed by collectiion of urine and isolation of metabolites by column chromatography and selective solubilization in organic solvents yielded several metabolites. […] This metabolic pathway is consistent with the other anti-psychotic-anxilytic agents disclosed and claimed in U.S. Pat. Nos. 4,636,563 and 4,672,117.

Data set [5] is described as follows: detection of metabolite in monkey urine and plasma after administration of the parent drug. The data set is classed as in vivo. The conditions noted are these: intragastric 4 mg/kg or iv 1 mg/kg of parent drug.
Excerpt: as §2

The nature of data set [6]: overall appraisal from conditioned avoidance, serotonin binding inhibition and dopamine receptor binding inhibition procedures. The conditions noted are these: tertiary nitrogen oxides of the parent compared. As to the method: as §1

T1 sequence (P14842 whole entry): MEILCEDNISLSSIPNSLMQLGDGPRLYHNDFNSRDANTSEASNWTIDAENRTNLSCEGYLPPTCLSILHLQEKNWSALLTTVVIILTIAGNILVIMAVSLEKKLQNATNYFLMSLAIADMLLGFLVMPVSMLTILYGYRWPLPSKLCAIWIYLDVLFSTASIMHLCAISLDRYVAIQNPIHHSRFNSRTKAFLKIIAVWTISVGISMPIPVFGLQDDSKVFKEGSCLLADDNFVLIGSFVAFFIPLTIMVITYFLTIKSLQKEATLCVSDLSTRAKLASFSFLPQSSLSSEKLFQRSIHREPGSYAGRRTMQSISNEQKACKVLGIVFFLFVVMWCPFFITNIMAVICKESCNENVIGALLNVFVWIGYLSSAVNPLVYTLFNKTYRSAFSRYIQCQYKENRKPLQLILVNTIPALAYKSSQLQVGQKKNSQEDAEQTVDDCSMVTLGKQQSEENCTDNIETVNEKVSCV
T2 sequence (P61169 whole entry): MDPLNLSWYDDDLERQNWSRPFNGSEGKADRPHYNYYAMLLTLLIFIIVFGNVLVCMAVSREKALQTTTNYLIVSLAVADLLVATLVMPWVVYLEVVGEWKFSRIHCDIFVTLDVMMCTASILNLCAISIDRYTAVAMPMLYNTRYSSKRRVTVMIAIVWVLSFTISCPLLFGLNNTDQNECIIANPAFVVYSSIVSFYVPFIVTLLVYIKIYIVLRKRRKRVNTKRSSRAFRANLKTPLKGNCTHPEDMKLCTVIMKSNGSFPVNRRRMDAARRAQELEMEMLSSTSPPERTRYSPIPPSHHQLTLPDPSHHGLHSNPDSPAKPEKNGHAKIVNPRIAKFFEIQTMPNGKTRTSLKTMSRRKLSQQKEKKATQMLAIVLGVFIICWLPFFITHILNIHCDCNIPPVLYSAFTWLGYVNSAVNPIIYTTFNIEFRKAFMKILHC

`Fc1ccc2[nH]c3c(c2c1)CN(CCCc1cccnc1)CC3` [A, 8-fluoro-2,3,4,5-tetrahydro-2-[3-(3-pyridinyl)propyl]-1H-piperidino(4,3-b]indole, reference compound]: the inhibition (usually the percentage by which the read-out fell short of the control) at 1 µM in data set [1] worked out at 78%; in data set [2], 93%. In data set [3] (20 mg/kg), this compound gave an Inhibition of shelf-jump of 73%.
Regarding `[O-][n+]1cccc(CCC[N+]2([O-])CCc3[nH]c4ccc(F)cc4c3C2)c1` (stereo not drawn) [B, 8-Fluoro-2,3,4,5-tetrahydro-2-[3-(3-pyridinyl)propyl]-1H-piperidino[4,3-b]indole N,2-dioxide], the inhibition at 1 µM in data set [1] is 18%; in data set [2] it was 4%.
Consider `[O-][N+]1(CCCc2cccnc2)CCc2[nH]c3ccc(F)cc3c2C1` (stereo not drawn) [C, 8-Fluoro-2,3,4,5-tetrahydro-2-[3-(3-pyridinyl)propyl]-1H-piperidino[4,3-b]indole 2-oxide], for which the results for the inhibition at 1 µM in data set [1] and in data set [2] were 18% and 0%, respectively. Besides, in data set [3] (result in words, dose not given), the Inhibition of shelf-jump entry is “not significant”.
Consider `[O-][n+]1cccc(CCCN2CCc3[nH]c4ccc(F)cc4c3C2)c1` [D, 8-Fluoro-2,3,4,5-tetrahydro-2-[3-(3-pyridinyl)propyl]-1H-piperidino[4,3-b]indole N-oxide], for which the “metabolite of the parent drug in urine” value in data set [4] is given as “one of the major metabolites”. Moreover, the inhibition at 1 µM amounted to 68% in data set [1] and 66% in data set [2]. Also, the “detection as metabolite in urine and plasma” value in data set [5] is “detected in monkey urine and plasma”. In addition, in data set [6], the “antipsychotic/anxiolytic activity” value is recorded as “meaningful antipsychotic/anxiolytic activity”. In addition, the Inhibition of shelf-jump in data set [3] (40 mg/kg) was 16%.
For the compound `NCCc1ccc(O)c(O)c1` [dopamine, reference compound], the “activity at serotonin-2 receptor” value in data set [1] was “inactive”.
